Assay results as given in patent publication US11407736B2 (priority 2019, dated 2022).
Like-named read-outs stand apart in the source and are kept apart here.

Key:
[1] = in vivo pharmacokinetics, plasma and brain exposure; conditions: for Kp: rodents
Source text: Brain penetration may be assessed by evaluating free brain/plasma ratio (Bu/Pu) as measured in vivo pharmacokinetic studies in rodents.

[2] = test system: TNF-alpha induced hypothermia; conditions: dose of 30 mg/kg, according to WO 2014/125444; cited from earlier work
RIPK1 = RIPK1 (Homo sapiens (Human), UniProt Q13546); assay: RIPK1 ADP-Glo biochemical kinase assay; conditions: read-out: RIPK1 ADP-Glo Kinase (IC50)
Sequence of RIPK1 (Q13546 whole entry, species assumed): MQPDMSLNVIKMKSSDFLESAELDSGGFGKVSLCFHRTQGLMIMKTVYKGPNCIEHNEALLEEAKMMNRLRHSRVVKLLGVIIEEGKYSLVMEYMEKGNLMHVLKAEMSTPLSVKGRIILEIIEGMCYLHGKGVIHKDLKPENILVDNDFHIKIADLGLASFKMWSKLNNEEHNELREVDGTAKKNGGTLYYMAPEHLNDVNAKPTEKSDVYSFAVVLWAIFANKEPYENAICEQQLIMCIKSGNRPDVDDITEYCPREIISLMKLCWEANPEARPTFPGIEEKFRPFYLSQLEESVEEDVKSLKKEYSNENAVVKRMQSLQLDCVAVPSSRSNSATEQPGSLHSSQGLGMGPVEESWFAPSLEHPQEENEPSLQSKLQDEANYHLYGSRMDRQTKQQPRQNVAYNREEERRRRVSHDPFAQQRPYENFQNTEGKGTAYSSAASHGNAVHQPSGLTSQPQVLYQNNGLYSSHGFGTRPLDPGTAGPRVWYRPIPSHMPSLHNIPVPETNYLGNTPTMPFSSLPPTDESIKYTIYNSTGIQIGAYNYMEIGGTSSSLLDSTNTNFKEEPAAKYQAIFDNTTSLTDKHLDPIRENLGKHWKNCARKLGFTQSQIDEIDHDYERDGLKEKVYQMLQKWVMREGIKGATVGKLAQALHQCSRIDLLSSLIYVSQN
Procedure: The final reaction volume was 5.0ul.
Adding 5 μl of ADP-Glo™ terminated the reaction.

L929 cells = assay: L929 cell necroptosis assay (TNFa + zVAD, CellTiter-Glo); type: cell-based, murine
Procedure, shortened: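 Necroptosis was read as CellTiter-Glo luminescence 18 hours after TNFa stimulation at 37° C, 5% CO2. Prior to that, L929 cells (10K/well, plated 18 h) received fresh medium with 40 uM zVAD-fmk plus 4-fold serially diluted compound.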

U937 cells = assay: U937 cell necroptosis assay (TNFa + zVAD, CellTiter-Glo); type: cell-based, human; conditions: Homo sapiens
Procedure, shortened: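 Necroptosis was induced with TNFa at 2 ng/mL final for 18 h at 37 °C, following 1 h compound pre-incubation in the presence of zVAD-fmk (60 uM for U937 plating medium, 40 uM for L929 medium). Luminescent CellTiter-Glo signal gave relative cell survival.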

[3] = Mus musculus, L929, read-out: L929-CTG-recovery, L929, TNFa + zVAD (IC50), L929 cells, TNFa + zVAD
[4] = U-937, read-out: U937 Zvad TNF CTG Recovery, U937, TNFa + zVAD (IC50), U937 cells, TNFa + zVAD
[5] = Mus musculus, L929, L929 cells, TNFa + zVAD, read-out: L929-CTG-recovery, L929, TNFa + zVAD (IC50)
[6] = U-937, U937 cells, TNFa + zVAD, read-out: U937 Zvad TNF CTG Recovery, U937, TNFa + zVAD (IC50)
[7] = Mus musculus, L929 cells, TNFa + zVAD, read-out: L929-CTG-recovery, L929, TNFa + zVAD (IC50)

Row | SMILES | BRAIN AUC0-6 [1] | IC50 (RIPK1) [nM] | IC50 (U937 cells; [6]) [nM] | also measured
1 | CN1C(=O)C(NC(=O)n2cc(Cc3ccccc3)cn2)CCc2ccc(N3CC4(CCOCC4)C3)cc21 (racemic) [Compound I-182, (±)-4-Benzyl-N-(1-methyl-2-oxo-8-(7-oxa-2-azaspiro[3.5]nonan-2-yl)-2,3,4,5-tetrahydro-1H-benzo[b]azepin-3-yl)-1-pyrazole-1-carboxamide] | 157 | – | – | Kp ([1]; in vivo): 0.56
2 | CN1C(=O)[C@@H](NC(=O)c2nnc(Cc3ccccc3)[nH]2)COc2ccccc21 [(S)-5-benzyl-N-(5-methyl-4-oxo-2,3,4,5-tetrahydrobenzo[b][1,4]oxazepin-3-yl)-4H-1,2,4-triazole-3-carboxamide] | – | – | – | inhibition of TNF-alpha induced hypothermia [2]: 93%
3 | CN1C(=O)[C@@H](NC(=O)c2cc(Oc3ccccc3)ccn2)COc2ccc(C#CC3(C)COC3)cc21 [Compound I-127, (S)—N-(5-methyl-7-((3-methyloxetan-3-yl)ethynyl)-4-oxo-2,3,4,5-tetrahydrobenzo[b][1,4]oxazepin-3-yl)-4-phenoxypicolinamide] | 160 | 29.6 | – | IC50 (L929 cells; [3]): 40.6 nM; IC50 (U937 cells; [4]): 0.3 nM; Kp ([1]; brain/plasma): 0.98
4 | CN1C(=O)[C@@H](NC(=O)c2cc(Oc3ccccc3)ccn2)COc2ccc(C#CC(C)(C)N)cc21 [Compound I-139, (S)—N-(7-(3-amino-3-methylbut-1-yn-1-yl)-5-methyl-4-oxo-2,3,4,5-tetrahydrobenzo[b][1,4]oxazepin-3-yl)-4-phenoxypicolinamide] | 1100 | 21.2 | – | IC50 (L929 cells; read-out: L929-CTG-recovery, L929, TNFa + zVAD (IC50), L929 cells, TNFa + zVAD): 538 nM; IC50 (U937 cells; [4]): 7.7 nM; Kp ([1]; brain/plasma): 1.29
5 | COC1(C#Cc2ccc3c(c2)N(C)C(=O)[C@@H](NC(=O)c2cc(Oc4ccccc4)ccn2)CO3)CN(C)C1 [Compound I-155, (S)—N-(7-((3-methoxy-1-methylazetidin-3-yl)ethynyl)-5-methyl-4-oxo-2,3,4,5-tetrahydrobenzo[b][1,4]oxazepin-3-yl)-4-phenoxypicolinamide] | 373 | 24.6 | 1.3 | IC50 (L929 cells; [5]): 313 nM; Kp ([1]; brain/plasma): 1.7
6 | CN1C(=O)[C@@H](NC(=O)n2cc(Cc3ccc(F)cc3)cn2)COc2ccc(C#CC3(C)COC3)cc21 [Compound I-180, (S)-4-(4-fluorobenzyl)-N-(5-methyl-7-((3-methyloxetan-3-yl)ethynyl)-4-oxo-2,3,4,5-tetrahydrobenzo[b][1,4]oxazepin-3-yl)-1H-pyrazole-1-carboxamide] | 251 | – | – | Kp ([1]; brain/plasma): 2.44
7 | CN1C(=O)[C@@H](NC(=O)c2nn(Cc3ccccc3)cc2F)COc2ccc(N3CCC4(CCOCC4)C3)cc21 [Compound I-181, (S)-1-Benzyl-4-fluoro-N-(5-methyl-4-oxo-7-(8-oxa-2-azaspiro[4.5]decan-2-yl)-2,3,4,5-tetrahydrobenzo[b][1,4]oxazepin-3-yl)-1H-pyrazole-3-carboxamide] | 456 | – | – | Kp ([1]; in vivo): 0.46
8 | Cc1cccc(C#Cc2ccc3c(c2)N(C)C(=O)[C@@H](NC(=O)n2cc(Cc4ccc(F)cc4)cn2)CO3)n1 [Compound I-183, (S)-4-(4-fluorobenzyl)-N-(5-methyl-7-((6-methylpyridin-2-yl)ethynyl)-4-oxo-2,3,4,5-tetrahydrobenzo[b][1,4]oxazepin-3-yl)-1H-pyrazole-1-carboxamide] | 326 | – | – | Kp ([1]; brain/plasma): 0.9
9 | CN1C(=O)[C@@H](NC(=O)n2cc(Cc3ccc(F)cc3)cn2)COc2ccc(N3CC4(CCOCC4)C3)cc21 [Compound I-184, (S)-4-(4-fluorobenzyl)-N-(5-methyl-4-oxo-7-(7-oxa-2-azaspiro[3.5]nonan-2-yl)-2,3,4,5-tetrahydrobenzo[b][1,4]oxazepin-3-yl)-1H-pyrazole-1-carboxamide] | 731 | – | – | Kp ([1]; in vivo): 0.93
10 | CN1C(=O)[C@@H](NC(=O)c2cc(Oc3cccc(C#N)c3)ccn2)COc2cc(C#CC(C)(C)O)ccc21 [II-21, (S)-4-(3-cyanophenoxy)-N-(8-(3-hydroxy-3-methylbut-1-yn-1-yl)-5-methyl-4-oxo-2,3,4,5-tetrahydrobenzo[b][1,4]oxazepin-3-yl)picolinamide] | – | 40.9 | 14.3 | IC50 (L929 cells; [5]): 3440 nM
11 | COc1ccc(-c2ccnc(C(=O)N[C@H]3COc4ccc(C#CC(C)(C)O)cc4N(C)C3=O)c2)cc1 [II-22, (S)—N-(7-(3-hydroxy-3-methylbut-1-yn-1-yl)-5-methyl-4-oxo-2,3,4,5-tetrahydrobenzo[b][1,4]oxazepin-3-yl)-4-(4-methoxyphenyl)picolinamide] | – | 310 | – | IC50 (L929 cells; [3]): 56000 nM; IC50 (U937 cells; [4]): 580 nM
12 | CN1C(=O)[C@@H](NC(=O)c2cc(Oc3ccccc3)ccn2)COc2ccc(CCC(N)=O)cc21 [II-24, (S)—N-(7-(3-amino-3-oxopropyl)-5-methyl-4-oxo-2,3,4,5-tetrahydrobenzo[b][1,4]oxazepin-3-yl)-4-phenoxypicolinamide] | – | 56.3 | – | IC50 (L929 cells; [3]): 7910 nM; IC50 (U937 cells; [4]): 16.6 nM
13 | CN1C(=O)[C@@H](NC(=O)c2cc(Oc3ccccc3)ccn2)COc2ccc(C#CC(C)(C)C)cc21 [II-25, (S)—N-(7-(3,3-dimethylbut-1-yn-1-yl)-5-methyl-4-oxo-2,3,4,5-tetrahydrobenzo[b][1,4]oxazepin-3-yl)-4-phenoxypicolinamide] | – | 226 | – | IC50 (L929 cells; [3]): 202 nM; IC50 (U937 cells; [4]): 2.4 nM
14 | CN1CCC2(CC1)CCN(c1ccc3c(c1)N(C)C(=O)[C@@H](NC(=O)c1cc(Oc4ccccc4)ccn1)CO3)CC2 [II-27, (S)—N-(5-Methyl-7-(9-methyl-3,9-diazaspiro[5.5]undecan-3-yl)-4-oxo-2,3,4,5-tetrahydrobenzo[b][1,4]oxazepin-3-yl)-4-phenoxypicolinamide] | – | 27.9 | 63.3 | IC50 (L929 cells; [7]): 10400 nM
15 | CN1C(=O)[C@@H](NC(=O)c2cc(Oc3ccccc3)ccn2)COc2ccc(N3CC4(CCOCC4)C3)cc21 [II-28, (S)—N-(5-methyl-4-oxo-7-(7-oxa-2-azaspiro[3.5]nonan-2-yl)-2,3,4,5-tetrahydrobenzo[b][1,4]oxazepin-3-yl)-4-phenoxypicolinamide] | – | 16.1 | 8.3 | IC50 (L929 cells; [7]): 2220 nM
16 | CN1C(=O)[C@@H](NC(=O)c2cc(Oc3ccccc3)ccn2)COc2ccc(N3CCC4(CCOCC4)C3)cc21 [II-31, (S)—N-(5-methyl-4-oxo-7-(8-oxa-2-azaspiro[4.5]decan-2-yl)-2,3,4,5-tetrahydrobenzo[b][1,4]oxazepin-3-yl)-4-phenoxypicolinamide] | – | 36.3 | 8 | IC50 (L929 cells; [7]): 654 nM
17 | COC(C)(C)C#Cc1ccc2c(c1)N(C)C(=O)[C@@H](NC(=O)c1cc(Oc3ccccc3)ccn1)CO2 [II-32, (S)—N-(7-(3-methoxy-3-methylbut-1-yn-1-yl)-5-methyl-4-oxo-2,3,4,5-tetrahydrobenzo[b][1,4]oxazepin-3-yl)-4-phenoxypicolinamide] | – | 50.5 | – | IC50 (L929 cells; [3]): 57.4 nM; IC50 (U937 cells; [4]): 2.1 nM
18 | CN1C(=O)[C@@H](NC(=O)c2cc(Oc3ccccc3)ccn2)COc2ccc(C#Cc3cccc(C#N)n3)cc21 [II-33, (S)—N-(7-((6-cyanopyridin-2-yl)ethynyl)-5-methyl-4-oxo-2,3,4,5-tetrahydrobenzo[b][1,4]oxazepin-3-yl)-4-phenoxypicolinamide] | – | 101 | 1.8 | IC50 (L929 cells; [5]): 33.1 nM
19 | CN1C(=O)[C@@H](NC(=O)c2cc(Oc3ccccc3)ccn2)COc2ccc(C#CCO)cc21 [II-35, (S)—N-(7-(3-hydroxyprop-1-yn-1-yl)-5-methyl-4-oxo-2,3,4,5-tetrahydrobenzo[b][1,4]oxazepin-3-yl)-4-phenoxypicolinamide] | – | 27.5 | 0.7 | IC50 (L929 cells; [5]): 164 nM
20 | CN(C)CC#Cc1ccc2c(c1)N(C)C(=O)[C@@H](NC(=O)c1cc(Oc3ccccc3)ccn1)CO2 [II-36, (S)—N-(7-(3-(dimethylamino)prop-1-yn-1-yl)-5-methyl-4-oxo-2,3,4,5-tetrahydrobenzo[b][1,4]oxazepin-3-yl)-4-phenoxypicolinamide] | – | 38.9 | 1.6 | IC50 (L929 cells; [5]): 132 nM
21 | CN1C(=O)[C@@H](NC(=O)c2cc(Oc3ccccc3)ccn2)COc2ccc(C#CC3CCCN3)cc21 (stereo partly drawn) [II-39, N-((3S)-5-methyl-4-oxo-7-(pyrrolidin-2-ylethynyl)-2,3,4,5-tetrahydrobenzo[b][1,4]oxazepin-3-yl)-4-phenoxypicolinamide] | – | 23 | 1.8 | IC50 (L929 cells; [5]): 1350 nM
